According to ChEMBL document CHEMBL6127009, “Discovery of L15 as a novel Vif PROTAC degrader with antiviral activity against HIV-1” (Bioorg Med Chem Lett, 2024):
Structures can show the parent of a compound that is named as a salt. Calls of active or inactive are those of the source. The calls are words filed in the database; no cut-off is given here.

Experiments:
[1] = system: Human immunodeficiency virus 1; assay: Antiviral activity against HIV-1 IIIB infected in TZM-bl cells; format: functional, organism-based; conditions: Human immunodeficiency virus 1, IIIB
[2] = Cytotoxicity against human TZM-bl cells; format: toxicity, cell-based
[3] = system: Human immunodeficiency virus 1; assay: Antiviral activity against HIV-1 2802 infected in C8166 cells; format: functional, organism-based; conditions: Human immunodeficiency virus 1, 2802, C8166
[4] = Therapeutic index, ratio of CC50 for human TZM-bl cells to EC50 for HIV IIIB infected in TZM-bl cells; format: toxicity, cell-based; conditions: read-out: Ratio CC50/EC50
[5] = target: T1, Protein cereblon/Virion infectivity factor (Human immunodeficiency virus type 1 group M subtype B (isolate NY5)(HIV-1)) (UniProt Q96SW2+P12504); assay: PROTAC activity at CRBN (unknown origin)/Vif in HIV-1 TREX-hvif-15 cells assessed as reduction in Vif protein level at 50 uM by Western blotting analysis; format: cell-based; conditions: TREX-hvif-15 cell
[6] = system: Human immunodeficiency virus 1; assay: Antiviral activity against HIV1 at 1 uM measured after 2 to 4 hrs; format: functional, organism-based; conditions: time 2-4 hrs
[7] = system: Human immunodeficiency virus 1; assay: Antiviral activity against HIV-1 G140S/Q148H infected in C8166 cells; format: functional, organism-based; conditions: Human immunodeficiency virus 1, G140S/Q148H
[8] = system: Human immunodeficiency virus 1; assay: Antiviral activity against HIV-1 A17 infected in C8166 cells; format: functional, organism-based; conditions: Human immunodeficiency virus 1, A17, C8166
[9] = system: Human immunodeficiency virus 1; assay: Antiviral activity against HIV-1 WAN infected in PHA-P stimulated PBMCs; format: functional, organism-based; conditions: Human immunodeficiency virus 1, WAN, PBMC
[10] = system: Human immunodeficiency virus 1; assay: Antiviral activity against HIV-1 IIIB infected in C8166 cells; format: functional, organism-based; conditions: Human immunodeficiency virus 1, IIIB
[11] = system: Human immunodeficiency virus 1; assay: Antiviral activity against HIV-1 4755-5 infected in C8166 cells; format: functional, organism-based; conditions: Human immunodeficiency virus 1, 4755-5, C8166
[12] = system: Human immunodeficiency virus 1; assay: Antiviral activity against HIV1 at 1 uM measured after 8 hrs; format: functional, organism-based
[13] = system: Human immunodeficiency virus 1; assay: Antiviral activity against HIV-1 KIZ002 infected in PHA-P stimulated PBMCs; format: functional, organism-based; conditions: Human immunodeficiency virus 1, KIZ002, PBMC
[14] = system: Human immunodeficiency virus 1; assay: Antiviral activity against HIV-1 9498 infected in C8166 cells; format: functional, organism-based; conditions: Human immunodeficiency virus 1, 9498, C8166
[15] = target: T1, Protein cereblon/Virion infectivity factor (Human immunodeficiency virus type 1 group M subtype B (isolate NY5)(HIV-1)); assay: PROTAC activity at CRBN (unknown origin)/Vif in HIV-1 TREX-hvif-15 cells assessed as reduction in Vif protein level at 50 uM pretreated with MG132 followed by compound addition and measured after 24 hrs by Western blotting analysis; format: cell-based; conditions: TREX-hvif-15 cell

T1 sequence (P12504 whole entry, looked up): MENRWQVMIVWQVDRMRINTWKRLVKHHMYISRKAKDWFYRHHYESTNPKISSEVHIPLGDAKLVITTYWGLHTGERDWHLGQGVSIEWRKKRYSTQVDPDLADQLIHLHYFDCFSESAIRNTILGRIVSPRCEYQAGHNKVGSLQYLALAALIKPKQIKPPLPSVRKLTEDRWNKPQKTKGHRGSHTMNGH
T1 sequence (Q96SW2 whole entry, looked up): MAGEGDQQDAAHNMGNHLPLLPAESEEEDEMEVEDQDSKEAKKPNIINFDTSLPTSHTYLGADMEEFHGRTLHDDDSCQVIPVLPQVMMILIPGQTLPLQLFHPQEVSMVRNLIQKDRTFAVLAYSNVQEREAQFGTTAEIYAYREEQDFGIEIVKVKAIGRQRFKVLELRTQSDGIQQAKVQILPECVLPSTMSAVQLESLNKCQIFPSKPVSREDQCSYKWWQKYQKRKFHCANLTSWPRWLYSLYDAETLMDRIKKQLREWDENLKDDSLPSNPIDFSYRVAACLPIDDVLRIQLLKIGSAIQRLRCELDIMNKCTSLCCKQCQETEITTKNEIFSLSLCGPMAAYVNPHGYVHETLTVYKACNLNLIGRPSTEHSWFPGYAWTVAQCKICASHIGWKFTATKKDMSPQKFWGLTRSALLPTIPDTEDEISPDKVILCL

Compound	EC50 [1] [µM]	CC50 [2] [µM]	also measured
COc1ccc(OCC(=O)NCCOCCNc2cccc3c2C(=O)N(C2CCC(=O)NC2=O)C3=O)cc1NC(=O)c1c(N)cccc1S(=O)(=O)c1ccc([N+](=O)[O-])cc1 (centres undefined)	> 100	> 200	
COc1ccc(OCC(=O)NCCCCNCC(=O)Nc2cccc3c2C(=O)N(C2CCC(=O)NC2=O)C3=O)cc1NC(=O)c1c(N)cccc1Sc1ccc([N+](=O)[O-])cc1 (centres undefined)	> 100	> 200	
COc1ccc(OCC(=O)NCCOCCNCC(=O)Nc2cccc3c2C(=O)N(C2CCC(=O)NC2=O)C3=O)cc1NC(=O)c1c(N)cccc1Sc1ccc([N+](=O)[O-])cc1 (centres undefined)	> 100	> 200	
CC(C)CN(C[C@@H](O)[C@H](Cc1ccccc1)NC(=O)O[C@H]1CO[C@H]2OCC[C@H]21)S(=O)(=O)c1ccc(N)cc1 [DARUNAVIR]			EC50 [3]: < 0.032 µM
COc1ccc(OCC(=O)NCCCCCCCCCCNc2cccc3c2C(=O)N(C2CCC(=O)NC2=O)C3=O)cc1NC(=O)c1c(N)cccc1S(=O)(=O)c1ccc([N+](=O)[O-])cc1 (centres undefined)	> 100	> 200	
COc1ccc(OCC(=O)NCCCCCCCCNCC(=O)Nc2cccc3c2C(=O)N(C2CCC(=O)NC2=O)C3=O)cc1NC(=O)c1c(N)cccc1S(=O)(=O)c1ccc([N+](=O)[O-])cc1 (centres undefined)	> 100	> 200	
COc1ccc(OCC(=O)NCCCCNc2cccc3c2C(=O)N(C2CCC(=O)NC2=O)C3=O)cc1NC(=O)c1c(N)cccc1S(=O)(=O)c1ccc([N+](=O)[O-])cc1 (centres undefined)	> 100	> 200	
COc1ccc(OCC(=O)NCCOCCNc2cccc3c2C(=O)N(C2CCC(=O)NC2=O)C3=O)cc1NC(=O)c1c(N)cccc1Sc1ccc([N+](=O)[O-])cc1 (centres undefined)	> 100	> 200	
CC(C)OC(=O)OCOP(=O)(CO[C@H](C)Cn1cnc2c(N)ncnc21)OCOC(=O)OC(C)C [TENOFOVIR DISOPROXIL FUMARATE]	0.005	> 200	selectivity ratio [4]: > 43800
COc1ccc(O)cc1NC(=O)c1c(N)cccc1Sc1ccc([N+](=O)[O-])cc1	5.97	> 200	selectivity ratio [4]: > 33.5; Activity [5]: inactive
COc1ccc(OCC(=O)NCCCCNc2cccc3c2C(=O)N(C2CCC(=O)NC2=O)C3=O)cc1NC(=O)c1c(N)cccc1Sc1ccc([N+](=O)[O-])cc1 (centres undefined)	34.8	> 200	selectivity ratio [4]: > 5.76
COc1ccc(OCC(=O)NCCCCCCCCNc2cccc3c2C(=O)N(C2CCC(=O)NC2=O)C3=O)cc1NC(=O)c1c(N)cccc1Sc1ccc([N+](=O)[O-])cc1 (centres undefined)	> 100	> 200	
COc1ccc(OCC(=O)NCCOCCOCCOCCNCC(=O)Nc2cccc3c2C(=O)N(C2CCC(=O)NC2=O)C3=O)cc1NC(=O)c1c(N)cccc1Sc1ccc([N+](=O)[O-])cc1 (centres undefined)	> 100	> 200	
COc1ccc(OCC(=O)NCCNCC(=O)Nc2cccc3c2C(=O)N(C2CCC(=O)NC2=O)C3=O)cc1NC(=O)c1c(N)cccc1S(=O)(=O)c1ccc([N+](=O)[O-])cc1 (centres undefined)	> 100	> 200	
COc1ccc(OCC(=O)NCCCCNCC(=O)Nc2cccc3c2C(=O)N(C2CCC(=O)NC2=O)C3=O)cc1NC(=O)c1c(N)cccc1S(=O)(=O)c1ccc([N+](=O)[O-])cc1 (centres undefined)	> 100	> 200	
COc1ccc(OCC(=O)NCCCCCCCCNCC(=O)Nc2cccc3c2C(=O)N(C2CCC(=O)NC2=O)C3=O)cc1NC(=O)c1c(N)cccc1Sc1ccc([N+](=O)[O-])cc1 (centres undefined)	> 100	> 200	
Nc1ccn([C@@H]2CS[C@H](CO)O2)c(=O)n1 [LAMIVUDINE]			Activity [6]: Active; EC50 [7]: 5.61 µM; EC50 [8]: 0.28 µM; EC50 [9]: 0.15 µM; EC50 [10]: 0.16 µM; EC50 [11]: 76.9 µM; Activity [12]: inactive; EC50 [13]: 0.09 µM
COc1ccc(OCC(=O)NCCCCCCCCNc2cccc3c2C(=O)N(C2CCC(=O)NC2=O)C3=O)cc1NC(=O)c1c(N)cccc1S(=O)(=O)c1ccc([N+](=O)[O-])cc1 (centres undefined)	> 100	> 200	
enfuvirtide			EC50 [14]: > 10 µM
COc1ccc(OCC(=O)NCCOCCNCC(=O)Nc2cccc3c2C(=O)N(C2CCC(=O)NC2=O)C3=O)cc1NC(=O)c1c(N)cccc1S(=O)(=O)c1ccc([N+](=O)[O-])cc1 (centres undefined)	> 100	> 200	
COc1ccc(OCC(=O)NCCOCCOCCNc2cccc3c2C(=O)N(C2CCC(=O)N(C)C2=O)C3=O)cc1NC(=O)c1c(N)cccc1Sc1ccc([N+](=O)[O-])cc1 (centres undefined)			Activity [15]: inactive
COc1ccc(OCC(=O)NCCOCCOCCOCCNc2cccc3c2C(=O)N(C2CCC(=O)NC2=O)C3=O)cc1NC(=O)c1c(N)cccc1Sc1ccc([N+](=O)[O-])cc1 (centres undefined)	> 100	> 200	

Further lines, with some results ahead:

EC50 [1] [µM]	Compound	CC50 [2] [µM]	also measured
> 100	COc1ccc(OCC(=O)NCCCCCCNc2cccc3c2C(=O)N(C2CCC(=O)NC2=O)C3=O)cc1NC(=O)c1c(N)cccc1Sc1ccc([N+](=O)[O-])cc1 (centres undefined)	> 200	
> 100	COc1ccc(OCC(=O)NCCNc2cccc3c2C(=O)N(C2CCC(=O)NC2=O)C3=O)cc1NC(=O)c1c(N)cccc1S(=O)(=O)c1ccc([N+](=O)[O-])cc1 (centres undefined)	> 200	
> 100	COc1ccc(OCC(=O)NCCCCCCNCC(=O)Nc2cccc3c2C(=O)N(C2CCC(=O)NC2=O)C3=O)cc1NC(=O)c1c(N)cccc1Sc1ccc([N+](=O)[O-])cc1 (centres undefined)	> 200	
> 100	COc1ccc(OCC(=O)NCCCCCCNc2cccc3c2C(=O)N(C2CCC(=O)NC2=O)C3=O)cc1NC(=O)c1c(N)cccc1S(=O)(=O)c1ccc([N+](=O)[O-])cc1 (centres undefined)	> 200	
> 100	COc1ccc(OCC(=O)NCCNc2cccc3c2C(=O)N(C2CCC(=O)NC2=O)C3=O)cc1NC(=O)c1c(N)cccc1Sc1ccc([N+](=O)[O-])cc1 (centres undefined)	> 200	
> 100	COc1ccc(OCC(=O)NCCOCCOCCOCCNc2cccc3c2C(=O)N(C2CCC(=O)NC2=O)C3=O)cc1NC(=O)c1c(N)cccc1S(=O)(=O)c1ccc([N+](=O)[O-])cc1 (centres undefined)	> 200	
> 100	COc1ccc(OCC(=O)NCCCCCCNCC(=O)Nc2cccc3c2C(=O)N(C2CCC(=O)NC2=O)C3=O)cc1NC(=O)c1c(N)cccc1S(=O)(=O)c1ccc([N+](=O)[O-])cc1 (centres undefined)	> 200	
21.3	COc1ccc(OCC(=O)NCCOCCOCCOCCNCC(=O)Nc2cccc3c2C(=O)N(C2CCC(=O)NC2=O)C3=O)cc1NC(=O)c1c(N)cccc1S(=O)(=O)c1ccc([N+](=O)[O-])cc1 (centres undefined)	> 200	selectivity ratio [4]: > 9.39
> 100	COc1ccc(OCC(=O)NCCOCCOCCNc2cccc3c2C(=O)N(C2CCC(=O)NC2=O)C3=O)cc1NC(=O)c1c(N)cccc1S(=O)(=O)c1ccc([N+](=O)[O-])cc1 (centres undefined)	> 200	
53.1	COc1ccc(OCC(=O)NCCOCCOCCNCC(=O)Nc2cccc3c2C(=O)N(C2CCC(=O)NC2=O)C3=O)cc1NC(=O)c1c(N)cccc1Sc1ccc([N+](=O)[O-])cc1 (centres undefined)	> 200	selectivity ratio [4]: > 3.77
> 100	COc1ccc(OCC(=O)NCCCCCCCCCCNCC(=O)Nc2cccc3c2C(=O)N(C2CCC(=O)NC2=O)C3=O)cc1NC(=O)c1c(N)cccc1Sc1ccc([N+](=O)[O-])cc1 (centres undefined)	> 200	
> 100	COc1ccc(OCC(=O)NCCNCC(=O)Nc2cccc3c2C(=O)N(C2CCC(=O)NC2=O)C3=O)cc1NC(=O)c1c(N)cccc1Sc1ccc([N+](=O)[O-])cc1 (centres undefined)	> 200	
29	COc1ccc(OCC(=O)NCCCCCCCCCCNCC(=O)Nc2cccc3c2C(=O)N(C2CCC(=O)NC2=O)C3=O)cc1NC(=O)c1c(N)cccc1S(=O)(=O)c1ccc([N+](=O)[O-])cc1 (centres undefined)	> 200	selectivity ratio [4]: > 6.9
2.14	COc1ccc(O)cc1NC(=O)c1c(N)cccc1S(=O)(=O)c1ccc([N+](=O)[O-])cc1	> 200	selectivity ratio [4]: > 93.5; Activity [5]: inactive
66.9	COc1ccc(OCC(=O)NCCOCCOCCNCC(=O)Nc2cccc3c2C(=O)N(C2CCC(=O)NC2=O)C3=O)cc1NC(=O)c1c(N)cccc1S(=O)(=O)c1ccc([N+](=O)[O-])cc1 (centres undefined)	> 200	selectivity ratio [4]: > 2.99
> 100	COc1ccc(OCC(=O)NCCCCCCCCCCNc2cccc3c2C(=O)N(C2CCC(=O)NC2=O)C3=O)cc1NC(=O)c1c(N)cccc1Sc1ccc([N+](=O)[O-])cc1 (centres undefined)	> 200	
